From US20240158392A1 (Janssen Biotech, Inc., priority 2021, published 2024) come the findings set out here.

As a reminder, the IC50 is the concentration needed to halve the response being measured.

Structures are written as SMILES.

In assay [1] the target is T1, SIK2 (Homo sapiens, UniProt Q9H0K1). Nature of the assay: SIK2 Enzymatic Assay Version 1 (ADP Glo). It counts as biochemical. The gist of the method: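 Kinase activity read as ADP production by ADP-Glo luminescence, all steps at room temperature. Compound and SIK2 (0.6 nM, a 2× concentration) were preincubated 30 min; ATP-only wells lacking peptide were the negative control; depletion 40 min, detection ≥30 min.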
T1 sequence (Q9H0K1 whole entry, species assumed): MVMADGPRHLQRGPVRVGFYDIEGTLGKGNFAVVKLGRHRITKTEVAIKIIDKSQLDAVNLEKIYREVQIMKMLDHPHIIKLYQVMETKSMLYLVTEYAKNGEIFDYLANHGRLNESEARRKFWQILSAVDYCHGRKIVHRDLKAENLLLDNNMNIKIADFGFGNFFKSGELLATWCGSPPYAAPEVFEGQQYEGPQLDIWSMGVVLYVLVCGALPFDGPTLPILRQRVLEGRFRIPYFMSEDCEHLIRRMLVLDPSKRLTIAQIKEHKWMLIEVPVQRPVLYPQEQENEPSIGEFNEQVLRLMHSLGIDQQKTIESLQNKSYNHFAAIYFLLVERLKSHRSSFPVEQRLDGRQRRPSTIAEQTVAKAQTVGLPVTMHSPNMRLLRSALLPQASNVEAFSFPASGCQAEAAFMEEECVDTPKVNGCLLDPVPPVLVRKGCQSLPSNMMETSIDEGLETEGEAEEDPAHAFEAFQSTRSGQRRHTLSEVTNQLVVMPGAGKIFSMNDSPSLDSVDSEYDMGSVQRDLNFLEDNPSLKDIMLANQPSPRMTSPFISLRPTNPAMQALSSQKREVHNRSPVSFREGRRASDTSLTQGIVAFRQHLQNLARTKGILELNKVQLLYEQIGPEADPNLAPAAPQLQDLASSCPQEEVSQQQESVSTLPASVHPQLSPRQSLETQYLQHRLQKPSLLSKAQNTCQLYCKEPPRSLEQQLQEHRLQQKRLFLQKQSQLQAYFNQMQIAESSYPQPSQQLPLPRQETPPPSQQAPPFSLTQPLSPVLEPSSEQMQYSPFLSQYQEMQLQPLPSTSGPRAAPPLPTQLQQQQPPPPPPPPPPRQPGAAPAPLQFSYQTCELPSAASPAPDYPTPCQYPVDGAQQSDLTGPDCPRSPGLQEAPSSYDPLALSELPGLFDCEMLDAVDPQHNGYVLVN
For orientation: In ADP-Glo the light output rises with the ADP produced.

The target of assay [2] is T1, SIK2. Nature of the assay: SIK2 Enzymatic Assay High Version 2 (High ATP). The assay is classed as biochemical. In a few lines: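 At room temperature, enzyme (6 nM, 2× final) was preincubated with compound for 30 min, then 6 mM ATP and 400 μM HDAC5tide (both 2× final) were added for 2 h. ADP formed was measured by ADP-Glo Max (2 h reagent, 1 h detection) using luminescence.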

Consider `N#Cc1cc(-c2ccn3nc(NC(=O)C4CC4)cc3c2)c(OCc2ccccc2)cn1` [Example 753, N-[5-(5-benzyloxy-2-cyano-4-pyridyl)pyrazolo[1,5-a]pyridin-2-yl]cyclopropanecarboxamide], for which the IC50 was determined as 2.98 nM at SIK2 [1] and 483 nM on SIK2 [2].
